Experiments:
[1] = tested on: A549; assay: Cytotoxicity against Homo sapiens (human) A549 cells assessed as growth inhibition by MTT assay; assay type: functional, cell-based
[2] = tested on: HUVEC; assay: Cytotoxicity against recombinant Homo sapiens (human) basic FGF-stimulated HUVECs assessed as growth inhibition by MTT assay; assay type: functional, cell-based
[3] = tested on: HUVEC; assay: Cytotoxicity against HUVECs assessed as growth inhibition by MTT assay; assay type: cell-based; details: Homo sapiens
[4] = tested on: HUVEC; assay: Cytotoxicity against VEGF-stimulated HUVECs assessed as growth inhibition by MTT assay; assay type: functional, cell-based; details: Homo sapiens
[5] = tested on: HL-60; assay: Cytotoxicity against Homo sapiens (human) HL60 cells assessed as growth inhibition by MTT assay; assay type: functional, cell-based
[6] = tested on: K562; assay: Cytotoxicity against Homo sapiens (human) K562 cells assessed as growth inhibition by MTT assay; assay type: functional, cell-based
[7] = tested on: IM-9; assay: Cytotoxicity against Homo sapiens (human) IM9 cells assessed as growth inhibition by MTT assay; assay type: functional, cell-based
[8] = tested on: MDA-MB-231; assay: Cytotoxicity against Homo sapiens (human) MDA-MB-231 cells assessed as growth inhibition by MTT assay; assay type: functional, cell-based
[9] = tested on: MDA-MB-231; assay: Ratio of sunitinib IC50 to compound IC50 for Homo sapiens (human) MDA-MB-231 cells; assay type: functional
[10] = tested on: A549; assay: Ratio of LK-B030 IC50 to compound IC50 for Homo sapiens (human) A549 cells; assay type: functional
[11] = tested on: A549; assay: Ratio of sunitinib IC50 to compound IC50 for Homo sapiens (human) A549 cells; assay type: functional
[12] = tested on: K562; assay: Ratio of sunitinib IC50 to compound IC50 for Homo sapiens (human) K562 cells; assay type: functional
[13] = tested on: MDA-MB-231; assay: Ratio of LK-B030 IC50 to compound IC50 for Homo sapiens (human) MDA-MB-231 cells; assay type: functional
[14] = tested on: HL-60; assay: Ratio of sunitinib IC50 to compound IC50 for Homo sapiens (human) HL60 cells; assay type: functional

SMILES | IC50 [1] | IC50 [2] | IC50 [3] | IC50 [4] | IC50 [5] | IC50 [6] | IC50 [7] | IC50 [8] | Ratio IC50 [9] | Ratio IC50 [10] | Ratio IC50 [11] | Ratio IC50 [12] | Ratio IC50 [13] | Ratio IC50 [14]
CC/C(=C1/C(=O)N(CCCN(C)C)c2ccc(F)cc21)c1ccc[nH]1 | 16.9 µM | 9.75 µM | 22.2 µM | 9.57 µM | 10.3 µM | 8.82 µM | 11 µM | 10.6 µM |  |  |  |  |  | 
CCN(CC)CCNC(=O)c1c(C)[nH]c(/C=C2\C(=O)N(CCCN(C)C)c3ccc(Cl)cc32)c1C |  |  | 5.57 µM |  |  |  |  |  |  |  |  |  |  | 
CCN(CC)CCNC(=O)c1c(C)[nH]c(/C=C2\C(=O)Nc3ccc(F)cc32)c1C [SUNITINIB] |  |  | 3.9 µM |  |  |  |  |  |  |  |  |  |  | 
CCOC(=O)c1c(C)[nH]c(/C=C2\C(=O)N(CCCN(C)C)c3ccc(F)cc32)c1C | 1.55 µM | 1.81 µM | 8.56 µM | 10.1 µM | 1.36 µM | 1.54 µM | 3.21 µM | 3.86 µM |  |  |  |  |  | 
CCOC(=O)c1c(C)[nH]c(/C=C2\C(=O)N(CCCN(C)C)c3ccc(Cl)cc32)c1C.Cl | 1.1 µM | 10.2 µM | 22 µM | 9.66 µM | 1.17 µM | 1.36 µM | 2.95 µM | 1.47 µM | 1.8 | 1.6 | 1.8 | 1.8 | 1.6 | 1.8
CN(C)CCCN1C(=O)/C(=C(/c2ccccc2)c2ccc[nH]2)c2cc(F)ccc21 | 11.4 µM | 8.83 µM | 42.8 µM | 9.52 µM | 7.16 µM | 6.43 µM | 5.64 µM | 6.92 µM |  |  |  |  |  | 
CN(C)CCCN1C(=O)C(=C(c2ccccc2)c2ccccc2)c2cc(F)ccc21 | 13.4 µM | 10.9 µM | 32.8 µM | 8.42 µM | 10.1 µM | 6.85 µM | 9.38 µM | 6.61 µM |  |  |  |  |  | 
Cc1[nH]c(/C=C2\C(=O)N(CCCN(C)C)c3ccc(F)cc32)c(C)c1C(=O)N1CCOCC1 | 21.7 µM | 22 µM | 29.4 µM | 9.11 µM | 13.2 µM | 57 µM | 61.5 µM | 14.7 µM |  |  |  |  |  | 
Cc1[nH]c(/C=C2\C(=O)N(CCCN(C)C)c3ccc(Cl)cc32)c(C)c1C(=O)N1CCOCC1 | 8.6 µM | 10.7 µM | 14.2 µM | 4.21 µM | 4.64 µM | 5.46 µM | 7.65 µM | 9.69 µM |  |  |  |  |  | 
C/C(=C1/C(=O)N(CCCN(C)C)c2ccc(F)cc21)c1ccc[nH]1 | 8.27 µM | 8.83 µM | 13.9 µM | 9.71 µM | 7.99 µM | 6.41 µM | 6.68 µM | 5.92 µM |  |  |  |  |  | 

Reference: ChEMBL document CHEMBL3045410, “Synthesis and in vitro antitumor activity of 1-(3-dimethylamino)propyl indolin-2-one derivatives” (Med Chem Res, 2013)
